Holding throughout (assay): DTP human tumour cell line panel, 48 h
Assay [1] has as its system A549.
Assay [2] relates to BT-549.
The test system of assay [3] is CCRF-CEM.
The test system of assay [4] is DU-145.
The subject of assay [5] is HCT-116.
For assay [6], the system named is HOP-62.
In assay [7] the test system is IGROV-1.
The test system of assay [8] is MCF7.
Assay [9] deals with NCI-H226.
In assay [10] the test system is NCI-H23.
The test system of assay [11] is OVCAR-3.
Assay [12] concerns OVCAR-5.
The subject of assay [13] is OVCAR-8.
Assay [14] concerns RPMI-8226.
The subject of assay [15] is SF-539.
In assay [16] the test system is SK-MEL-28.
The test system of assay [17] is SN12C.
Assay [18] relates to SR.
The subject of assay [19] is U-251.
The test system of assay [20] is UACC-257.

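All cell lines were grown in 96-well plates and treated with compound for 48 hours. GI50 marks 50% less growth.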 Activity calls are given as the source filed them. Rule as the data show it: active = GI50 up to about 1.1 µM and inactive = higher.

Turning to `O=C(Nc1cc2cc([N+](=O)[O-])ccc2oc1=O)c1cccs1`, the GI50 (commonly the concentration at which growth is held to half of that of the control) in [1] is 43.8 µM (inactive); in assay [2] it was 69.2 µM (inactive); in assay [3] it was 11.3 µM (inactive); in assay [4] it was > 100 µM (inactive); in assay [5], 25.4 µM (inactive); in assay [6], 28.8 µM (inactive). In addition, the GI50 in assay [7] is 34.4 µM (inactive); in [8] it was 19.6 µM (inactive); in assay [9] it was 44 µM (inactive); in assay [10], > 10 µM (inactive); in assay [11] it was 97.5 µM (inactive); in assay [12], > 100 µM (inactive). Besides, the GI50 in assay [13] is 34.2 µM (inactive); in assay [14], 34 µM (inactive); in [15], 25.6 µM (inactive); in assay [16], 58.9 µM (inactive); in assay [17] it was 40.5 µM (inactive); in assay [18], 35 µM (inactive). Further, the GI50 in [19] was 19.8 µM (inactive); in assay [20] it was 75.2 µM (inactive).
As for `OCC1(CNc2cc(Cl)ncn2)CCC1`, the GI50 in [1], in [2], in assay [3], in assay [4], in [5] and in assay [6] was > 100 µM (inactive) in each case. In addition, the GI50 in assay [7], in assay [8], in assay [9], in [10], in [11] and in assay [12] was > 100 µM (inactive) each time. Further, the GI50 in assay [13], in [14], in assay [15], in assay [16], in [17] and in assay [18] was > 100 µM (inactive) each time. In addition, the GI50 in assay [19] and in assay [20] was > 100 µM (inactive) throughout.
As for `CN(C)CCNc1ccc(C(=O)NCCCN(C)CCCNC(=O)c2ccc(NCCN(C)C)c3c(=O)c4ccccc4[nH]c23)c2[nH]c3ccccc3c(=O)c12`, the GI50 was < 0.01 µM (active) in [1]; 0.144 µM (active) in [2]; < 0.01 µM (active) in assay [3]; < 0.0134 µM (active) in assay [4]; < 0.01 µM (active) in assay [5]; < 0.0291 µM (active) in assay [6]. Besides, the GI50 in assay [7] was < 0.01 µM (active); in assay [8] it was < 0.01 µM (active); in assay [9], 0.0199 µM (active); in [10] it was 0.0489 µM (active); in [11], 0.469 µM (active); in assay [12], 0.0458 µM (active). In addition, the GI50 in assay [13] was 0.0272 µM (active); in [14], < 0.01 µM (active); in assay [15], < 0.01 µM (active); in assay [16] it was 0.109 µM (active); in assay [17], < 0.01 µM (active); in [18] it was < 0.01 µM (active). In addition, the results for the GI50 in assay [19] and in assay [20] were < 0.01 µM (active) and 0.968 µM (active), respectively.
Consider `CC1=CC(=O)/C(=C/NC(=S)C(N)=S)C(=O)O1`, for which the GI50 is > 100 µM (inactive) in [1]; > 100 µM (inactive) in [2]; 44 µM (inactive) in assay [3]; > 100 µM (inactive) in assay [4]; > 100 µM (inactive) in assay [5]; > 100 µM (inactive) in [6]. For the same compound, the GI50 in assay [7], in assay [8], in assay [9], in [10], in assay [11] and in assay [12] was > 100 µM (inactive) in each case. For the same compound, the GI50 in assay [13] is > 100 µM (inactive); in assay [14] it was > 100 µM (inactive); in assay [15], > 100 µM (inactive); in assay [16] it was > 100 µM (inactive); in assay [17] it was > 100 µM (inactive); in assay [18] it was 47.2 µM (inactive). The GI50 in assay [19] and in assay [20] was > 100 µM (inactive) each time.
As for `CCC1([N+](=O)[O-])CN(N=O)C1`, the GI50 in assay [1], in assay [2], in assay [3], in [4], in assay [5] and in [6] was > 100 µM (inactive) throughout. Besides, the GI50 in assay [7], in [8], in assay [9], in [10], in [11] and in assay [12] was > 100 µM (inactive) in each case. For the same compound, the GI50 in assay [13], in assay [14], in assay [15], in assay [16], in assay [17] and in assay [18] was > 100 µM (inactive) throughout. In addition, the GI50 in assay [19] and in [20] was > 100 µM (inactive) each time.
For the compound `CC1(C)C(=O)N(O)C(C)(C)N1O`, the GI50 in assay [1], in assay [2], in assay [3], in assay [4], in [5] and in assay [6] was > 10 µM (inactive) in each case. Moreover, the GI50 in assay [7], in assay [8], in [9], in [10], in assay [11] and in assay [12] was > 10 µM (inactive) in each case. Besides, the GI50 in assay [13], in assay [14], in assay [15], in assay [16], in assay [17] and in assay [18] was > 10 µM (inactive) throughout. Moreover, the GI50 in [19] and in assay [20] was > 10 µM (inactive) throughout.
In the case of `NC(=O)c1cccc(/N=c2\oc3ccc(Br)cc3cc2-c2nc3ccccc3[nH]2)c1`, the GI50 in assay [1] is 13.1 µM (inactive); in assay [2], 13.6 µM (inactive); in assay [3] it was 2.61 µM (inactive); in assay [4] it was 15.5 µM (inactive); in assay [5] it was 16.4 µM (inactive); in [6], 16.2 µM (inactive). Also, the GI50 in [7] was 17.9 µM (inactive); in assay [8] it was 12.9 µM (inactive); in assay [9], 0.075 µM (active); in assay [10], 16 µM (inactive); in [11], 16.2 µM (inactive); in assay [12], 16.3 µM (inactive). In addition, the GI50 in [13] is 7.62 µM (inactive); in assay [14] it was 5.87 µM (inactive); in assay [15], 2.49 µM (inactive); in assay [16], > 100 µM (inactive); in assay [17], 17.4 µM (inactive); in assay [18], 5.73 µM (inactive). Besides, the GI50 in assay [19] was 13.2 µM (inactive); in assay [20], 20 µM (inactive).
Regarding `O=C1CC(NCc2ccccc2)c2c(Cl)sc(Cl)c21` (stereo not given), the GI50 in assay [1] is 33.3 µM (inactive); in [2], 31 µM (inactive); in assay [3], 2.54 µM (inactive); in assay [4], 35.8 µM (inactive); in assay [5] it was 15.1 µM (inactive); in assay [6], 29 µM (inactive). Further, the GI50 in assay [7] is 26.1 µM (inactive); in assay [8], 14 µM (inactive); in assay [9] it was 25.9 µM (inactive); in assay [10], 17.4 µM (inactive); in assay [11], 20 µM (inactive); in assay [12], 39.8 µM (inactive). The GI50 in [13] is 18 µM (inactive); in assay [14], 2.26 µM (inactive); in assay [15], 27.2 µM (inactive); in assay [16] it was 28.1 µM (inactive); in [17], 26 µM (inactive); in assay [18] it was 3.2 µM (inactive). Moreover, the GI50 in assay [19] is 18.3 µM (inactive); in assay [20], 19.6 µM (inactive).
`Cc1nc(O)nc2nc3ccc(Cl)cc3c(N(CCO)CCO)c12`: the GI50 in assay [1], in [2], in assay [3], in assay [4], in assay [5] and in assay [6] was > 100 µM (inactive) in each case. The GI50 in assay [7] is > 100 µM (inactive); in [8], > 100 µM (inactive); in assay [9] it was 26.8 µM (inactive); in assay [10] it was > 100 µM (inactive); in [11] it was > 100 µM (inactive); in assay [12] it was > 100 µM (inactive). Also, the GI50 in [13] is > 100 µM (inactive); in [14], 52.6 µM (inactive); in [15], > 100 µM (inactive); in [16] it was > 100 µM (inactive); in [17], > 100 µM (inactive); in assay [18] it was > 100 µM (inactive). The GI50 in [19] and in [20] was > 100 µM (inactive) in each case.
On to `Cc1ccc(S(=O)(=O)N2C3C=CC(C3)[C@@H]2C(Cl)(Cl)Cl)cc1` (stereo not given in full), for which the GI50 is 18.7 µM (inactive) in [1]; 16.4 µM (inactive) in assay [2]; 17 µM (inactive) in assay [3]; 10.5 µM (inactive) in assay [4]; 10.8 µM (inactive) in assay [5]; 10.4 µM (inactive) in assay [6]. Besides, the GI50 in [7] was 19.6 µM (inactive); in assay [8], 26.7 µM (inactive); in [9] it was 15 µM (inactive); in assay [10], 27.2 µM (inactive); in assay [11], 6.64 µM (inactive); in assay [12], 0.0391 µM (active). Also, the GI50 in [13] was 15.7 µM (inactive); in assay [14] it was 3.09 µM (inactive); in assay [15], 12.3 µM (inactive); in assay [16] it was 18.2 µM (inactive); in [17] it was 24.2 µM (inactive); in assay [18] it was 14.4 µM (inactive). Also, the GI50 in assay [19] was 15 µM (inactive); in [20], 20.1 µM (inactive).

(Values after ChEMBL document CHEMBL1201862, “PubChem BioAssay data set” (2004).)
